Source: paper PMC11360041 (ACS Omega, 2024)

Tests used:
Bipolaris maydis = format: cell-based; details: read-out: Inhibition rate, Bm
Fusarium graminearum = test: microbe, parasite or virus in culture; format: cell-based; details: read-out: Inhibition rate, Fg
Rhizoctonia solani = format: cell-based; details: read-out: Inhibition rate, Rs
Sclerotinia sclerotiorum = format: cell-based; details: read-out: Inhibition rate, Ss
watermelon anthracnose = test: organism not typed; format: cell-based; details: read-out: Inhibition rate, Wa
Physalospora piricola = format: cell-based; details: read-out: Inhibition rate, Pp, 50 mg/L, Physalospora piricola
Phytophthora capsici = format: cell-based; details: read-out: Inhibition rate, Pc
TMV [1] = test: Inactivation effect of compounds against TMV in vivo; set-up: species or system tobacco mosaic virus; details: Tobacco mosaic virus, read-out: relative inhibition rate (%) inactive effect
Alternaria solani = format: cell-based; details: read-out: Inhibition rate, As
Botrytis cinerea = format: cell-based; details: read-out: Inhibition rate, Bc
[2] = test system: Fusarium oxysporium f. sp. cucumeris; format: cell-based; details: read-out: Inhibition rate, Fc
TMV [3] = test: Protective effect of compounds against TMV in vivo; set-up: species or system tobacco mosaic virus; details: Tobacco mosaic virus, read-out: relative inhibition rate (%) protective effect
TMV [4] = test: Curative effect of compounds against TMV in vivo; details: Tobacco mosaic virus, read-out: relative inhibition rate (%) curative effect

Structure (SMILES) | inhibition at 50 µg/mL (Bipolaris maydis) | inhibition at 50 µg/mL (Fusarium graminearum) | inhibition at 50 µg/mL (Rhizoctonia solani) | inhibition at 50 µg/mL (Sclerotinia sclerotiorum) | inhibition at 50 µg/mL (watermelon anthracnose) | inhibition at 50 µg/mL (Physalospora piricola) | inhibition at 50 µg/mL (Phytophthora capsici) | inhibition at 100 µg/mL (TMV [1]) | inhibition at 500 µg/mL (TMV [1]) | inhibition at 50 µg/mL (Alternaria solani) | inhibition at 50 µg/mL (Botrytis cinerea) | inhibition at 50 µg/mL [2] | inhibition at 100 µg/mL (TMV [3]) | inhibition at 500 µg/mL (TMV [3]) | inhibition at 100 µg/mL (TMV [4]) | inhibition at 500 µg/mL (TMV [4])
O=C(Cn1ccc(=O)c2ccccc21)NN=Cc1coc2ccccc12 [Compound 24] | 11.1 ± 1.8% | 19 ± 1.2% | 17.9 ± 1.5% | 12.2 ± 0.5% | 9.3 ± 0.7% | 17.6 ± 1.2% | 19 ± 0.9% | 0% | 33.5 ± 0.6% | 23.1 ± 1.3% | 20.8 ± 1.5% | 22.4 ± 1.2% | – | – | – | –
COC(=O)Nc1nc2ccccc2[nH]1 [carbendazim, reference compound] | – | 29 ± 1.7% | 100% | 100% | 100% | 96 ± 1.2% | – | – | – | 98 ± 1.4% | 86 ± 1.4% | – | – | – | – | –
O=C(Cn1ccc(=O)c2ccccc21)NN=Cc1cccs1 [Compound 21] | 17.8 ± 1.2% | 9.5 ± 1.4% | 35.7 ± 1.5% | 17.1 ± 1.7% | 14 ± 0.7% | 76.5 ± 2.7% | 26.2 ± 2.3% | 0% | 12.3 ± 1.7% | 38.5 ± 1.3% | 31.3 ± 2.1% | 12.2 ± 1.6% | – | – | – | –
NNC(=O)Cn1ccc(=O)c2ccccc21 [C, (4-Oxo-4H-quinolin-1-yl)-acetic Acid Hydrazide] | – | – | – | – | – | – | – | 17.2 ± 1.1% | 45.9 ± 3.3% | – | – | – | 11.4 ± 2.9% | 47.8 ± 4.8% | 8.2 ± 0.5% | 31.5 ± 2%
O=C(Cn1ccc(=O)c2ccccc21)NN=Cc1ccccc1 [Compound 1] | 15.6 ± 1.7% | 14.3 ± 1.2% | 14.3 ± 1.3% | 19.5 ± 0.7% | 16.3 ± 1.3% | 16.2 ± 0.5% | 21.4 ± 1.1% | 0% | 29.3 ± 1.4% | 30.8 ± 2.3% | 33.3 ± 1.6% | 22.4 ± 1.9% | – | – | – | –
O=C(Cn1ccc(=O)c2ccccc21)NN=Cc1ccc(Br)cc1 [Compound 14] | 4.4 ± 0.6% | 2.4 ± 0.6% | 1.8 ± 0.7% | 2.4 ± 0.4% | 18.6 ± 1.7% | 32.4 ± 2.3% | 21.4 ± 1.8% | 0% | 31.7 ± 2.5% | 23.1 ± 1.5% | 20.8 ± 2.1% | 22.4 ± 1.3% | – | – | – | –
N#Cc1c(Cl)c(Cl)c(Cl)c(C#N)c1Cl [chlorothalonil, reference compound] | 86 ± 1.2% | 73 ± 0.9% | < 50% | < 50% | 100% | 91 ± 1.3% | 73 ± 1.3% | – | – | 100% | 100% | 100% | – | – | – | –
COc1ccc(C=NNC(=O)Cn2ccc(=O)c3ccccc32)cc1OC [Compound 5] | 11.1 ± 0.7% | 14.3 ± 1.5% | 12.5 ± 1.4% | 24.4 ± 1.1% | 16.3 ± 1.2% | 22.1 ± 1.5% | 14.3 ± 0.9% | 0% | 11.3 ± 3.2% | 30.8 ± 2.1% | 18.8 ± 1.9% | 16.3 ± 1.3% | – | – | – | –
Cc1ccc(C=NNC(=O)Cn2ccc(=O)c3ccccc32)cc1 [Compound 2] | 11.1 ± 2.1% | 14.3 ± 1.3% | 17.9 ± 1.7% | 12.2 ± 1.2% | 14 ± 1.3% | 17.6 ± 1.4% | 26.2 ± 1.8% | 0% | 26.7 ± 3% | 30.8 ± 1.6% | 25 ± 1.5% | 28.6 ± 2.3% | – | – | – | –
CC(C)(C)c1ccc(C=NNC(=O)Cn2ccc(=O)c3ccccc32)cc1 [Compound 3] | 8.9 ± 0.7% | 16.7 ± 1.3% | 17.9 ± 1.8% | 22 ± 1.9% | 16.3 ± 1.3% | 35.3 ± 2.1% | 23.8 ± 1.5% | 0% | 24.1 ± 1% | 30.8 ± 2.3% | 29.2 ± 1.7% | 10.2 ± 1.6% | – | – | – | –
